Patent US6416780B1 (Galen (Chemicals) Limited, priority 1997, dated 2002)
Like-named read-outs stand apart in the source and are kept apart here.

Key:
[1] = for sink conditions in 0.9% saline: rings of Examples 1 and 2, 250 ml, 37° C.; for In vitro release into 0.9% saline (as total testosterone): core loading 10% w/w testosterone
Procedure: The rings were tested in vitro at a constant temperature of 37° C. for their release characteristics in a sufficient volume (250 ml) of each of the following media: 0.9% (w/v) saline and 1.0% (w/v) aqueous benzalkonium chloride (BKC).
Thus, each ring was suspended by a thread in an individual enclosed flask containing the dissolution medium, maintained at a constant temperature of 37° C. The contents of the flask were gently agitated in order to prevent the occurrence of a hydrostatic layer on the surface of the ring. After 24 hours (±30 minutes), the ring was removed and suspended in a flask of fresh dissolution medium of identical volume.

[2] = Example 2 rings; 1.0% BKC versus 0.9% saline
[3] = In vitro release from Example 5 testosterone-17-propionate ring into 0.9% saline over 26 days; format: physicochemical; details: for In Vitro Release of Testosterone-17-propionate, Release Rate: Example 5 ring core length 90 mm
[4] = In vitro release from Example 3 rings into 0.9% saline over 30 days; format: physicochemical; details: 30 day monitoring period
[5] = human female, cited from earlier work
[6] = In vitro release from Example 6 pessary bullets into 0.9% saline; details: following an initial burst phase

CC(=O)O[C@H]1CC[C@H]2[C@@H]3CCC4=CC(=O)CC[C@]4(C)[C@H]3CC[C@]12C [testosterone-17-acetate]
sink conditions in 0.9% saline [1]: ‘non-sink conditions’ exist in saline | in vitro release rates into BKC compared with saline [2]: considerably higher than those into saline

CCC(=O)O[C@H]1CC[C@H]2[C@@H]3CCC4=CC(=O)CC[C@]4(C)[C@H]3CC[C@]12C [testosterone-17-propionate]
In Vitro Release of Testosterone-17-propionate, Release Rate ([3]; 0.9% saline, day 2): 171 µg/day | In Vitro Release of Testosterone-17-propionate, Release Rate ([3]; 0.9% saline, day 3): 328 µg/day | In Vitro Release of Testosterone-17-propionate, Release Rate ([3]; 0.9% saline, day 4): 337 µg/day | In Vitro Release of Testosterone-17-propionate, Release Rate ([3]; 0.9% saline, day 5): 465 µg/day | In Vitro Release of Testosterone-17-propionate, Release Rate ([3]; 0.9% saline, day 7): 457 µg/day | In Vitro Release of Testosterone-17-propionate, Release Rate ([3]; 0.9% saline, day 13): 527 µg/day | In Vitro Release of Testosterone-17-propionate, Release Rate ([3]; 0.9% saline, day 14): 587 µg/day | In Vitro Release of Testosterone-17-propionate, Release Rate ([3]; 0.9% saline, day 19): 585 µg/day | In Vitro Release of Testosterone-17-propionate, Release Rate ([3]; 0.9% saline, day 20): 663 µg/day | In Vitro Release of Testosterone-17-propionate, Release Rate ([3]; 0.9% saline, day 26): 637 µg/day | lag phase of in vitro release ([3]; Example 5 ring, freshly made, 0.9% saline): 13 days | in vitro release pattern ([3]; Example 5 ring, 0.9% saline, 13 day monitoring after the lag phase): substantially zero order pattern | amounts released compared with testosterone ([3]; intravaginal rings, high dose applications): amounts released are greater

C[C@]12CC[C@H]3[C@@H](CCC4=CC(=O)CC[C@@]43C)[C@@H]1CC[C@@H]2O [testosterone]
in vitro release pattern [4]: substantially zero order pattern | In vitro release into 0.9% saline (as total testosterone) ([1]; ring core length 30 mm, day 2): 270 µg/day | In vitro release into 0.9% saline (as total testosterone) ([1]; ring core length 30 mm, day 3): 232 µg/day | In vitro release into 0.9% saline (as total testosterone) ([1]; ring core length 30 mm, day 5): 237 µg/day | In vitro release into 0.9% saline (as total testosterone) ([1]; ring core length 30 mm, day 8): 228 µg/day | In vitro release into 0.9% saline (as total testosterone) ([1]; ring core length 30 mm, day 9): 229 µg/day | In vitro release into 0.9% saline (as total testosterone) ([1]; ring core length 30 mm, day 10): 226 µg/day | In vitro release into 0.9% saline (as total testosterone) ([1]; ring core length 30 mm, day 13): 238 µg/day | In vitro release into 0.9% saline (as total testosterone) ([1]; ring core length 30 mm, day 15): 227 µg/day | In vitro release into 0.9% saline (as total testosterone) ([1]; ring core length 30 mm, day 16): 216 µg/day | In vitro release into 0.9% saline (as total testosterone) ([1]; ring core length 30 mm, day 17): 224 µg/day | In vitro release into 0.9% saline (as total testosterone) ([1]; ring core length 60 mm, day 2): 471 µg/day | In vitro release into 0.9% saline (as total testosterone) ([1]; ring core length 60 mm, day 3): 401 µg/day | In vitro release into 0.9% saline (as total testosterone) ([1]; ring core length 60 mm, day 5): 419 µg/day | In vitro release into 0.9% saline (as total testosterone) ([1]; ring core length 60 mm, day 8): 400 µg/day | In vitro release into 0.9% saline (as total testosterone) ([1]; ring core length 60 mm, day 9): 407 µg/day | In vitro release into 0.9% saline (as total testosterone) ([1]; ring core length 60 mm, day 10): 406 µg/day | In vitro release into 0.9% saline (as total testosterone) ([1]; ring core length 60 mm, day 13): 430 µg/day | In vitro release into 0.9% saline (as total testosterone) ([1]; ring core length 60 mm, day 15): 408 µg/day | In vitro release into 0.9% saline (as total testosterone) ([1]; ring core length 60 mm, day 16): 392 µg/day | In vitro release into 0.9% saline (as total testosterone) ([1]; ring core length 60 mm, day 17): 388 µg/day | In vitro release into 0.9% saline (as total testosterone) ([1]; ring core length 90 mm, day 2): 696 µg/day | In vitro release into 0.9% saline (as total testosterone) ([1]; ring core length 90 mm, day 3): 572 µg/day | In vitro release into 0.9% saline (as total testosterone) ([1]; ring core length 90 mm, day 5): 588 µg/day | In vitro release into 0.9% saline (as total testosterone) ([1]; ring core length 90 mm, day 8): 592 µg/day | In vitro release into 0.9% saline (as total testosterone) ([1]; ring core length 90 mm, day 10): 581 µg/day | In vitro release into 0.9% saline (as total testosterone) ([1]; ring core length 90 mm, day 13): 623 µg/day | In vitro release into 0.9% saline (as total testosterone) ([1]; ring core length 90 mm, day 15): 595 µg/day | In vitro release into 0.9% saline (as total testosterone) ([1]; ring core length 90 mm, day 16): 584 µg/day | In vitro release into 0.9% saline (as total testosterone) ([1]; ring core length 90 mm, day 17): 612 µg/day | sink conditions in 0.9% saline [1]: ‘Sink conditions’ were evident | testosterone delivered per day ([5]; matrix (non-rate controlled) transdermal system, per day): about 1000 μg | mean circulating plasma testosterone levels ([5]; matrix transdermal system delivering about 1000 μg per day): 4 to 6 nM | in vitro release pattern [6]: substantially zero order release
